Counter-ions that a name gives are not always drawn.
How the values were obtained:
honeybees [1] = experiment: Test for Confirmation of Effect from Combined Use with Pesticide 1, 2: number of dead honeybees; format: in vivo, western honeybees; conditions: for Number of dead honeybees: of 50 honeybees; for honeybees of the tested population that had died: test zone 1
Description: (§1) Cinnamyl alcohol was used as the active ingredient of the honeybee repellent proposed by the present invention, while dinotefuran was used as the pesticide.
(§2) As the test sample representing the pesticide alone, a 0.01% by weight per volume ethanol solution of dinotefuran was used.
(§3) (2) Preparation of Feeding Stations and Water Stations 2 cotton pads (80 mm×170 mm) were layered on a lid of KP cup (150 mm in diameter) and the cotton pads were impregnated with 40% sugar water (80 g), after which two disposable wooden chopsticks (80 mm in length) were placed as “landing areas,” for use as “test insect (honeybee, stink bug) feeding station A.”
(§4) Also, equivalents of feeding station A above, except that water (80 g) was impregnated instead of 40% sugar water (80 g), were used as “water stations.”
(§5) “Test insect (honeybee, stink bug) feeding station A,” whose cotton pads were sprayed uniformly with 5 mL (containing 0.5 mg of dinotefuran) of the 0.01% by weight per volume ethanol solution of dinotefuran, was used as “test insect (honeybee, stink bug) feeding station B.”
(§6) “Test insect (honeybee, stink bug) feeding station A,” whose cotton pads were sprayed uniformly with 5 mL (containing 5 mg of cinnamyl alcohol and 0.5 mg of dinotefuran) of the mixed ethanol solution (0.1% by weight per volume of cinnamyl alcohol, 0.01% by weight per volume of dinotefuran), was used as “test insect (honeybee, stink bug) feeding station C.”
(§7) 3 spaces (80 cm×80 cm×80 cm, 25° C.) covered with nylon gauze were designated as “untreated zone” in which a water station and feeding station A were installed, “test zone 1” in which a water station and feeding stations A, B were installed, and “test zone 2” in which a water station and feeding stations A, C were installed.
(§8) In each of these “untreated zone,” “test zone 1,” and “test zone 2,” 50 honeybees (western honeybees) and 10 stink bugs (southern green stink bugs) were released and the number of dead honeybees and that of dead stink bugs were checked at the start of testing as well as 3 hours, 18 hours, and 20 hours after the start of testing.
(§9) Carvacrol was used as the active ingredient of the honeybee repellent proposed by the present invention, while clothianidin or fipronil was used as the pesticide.
(§10) As a test sample representing a combined use of the honeybee repellent proposed by the present invention and the pesticide, a mixed ethanol solution containing carvacrol and clothianidin (0.1% by weight per volume of carvacrol and 0.01% by weight per volume of clothianidin) or mixed ethanol solution containing carvacrol and fipronil (0.1% by weight per volume of carvacrol and 0.01% by weight per volume of fipronil) was used.
As a test sample representing the pesticide alone, a 0.01% by weight per volume ethanol solution of clothianidin or 0.01% by weight per volume ethanol solution of fipronil was used.
In the same manner as in <Test for Confirmation of Effect from Combined Use with Pesticide 1> above, the number of deaths among 50 honeybees (western honeybees) and that among 10 stink bugs (southern green stink bugs) were checked in each of the “untreated zone,” “test zone 1,” and “test zone 2.” Based on the results of <Test for Confirmation of Effect from Combined Use with Pesticide 1> above, the test was terminated when the number of dead honeybees in “test zone 1” reached around one half the tested population.

stink bugs [2] = experiment: Test for Confirmation of Effect from Combined Use with Pesticide 1, 2: number of dead stink bugs; format: in vivo, southern green stink bugs; conditions: of 10 stink bugs
Description: as §1, §2, §3, §4, §5, §6, §7, §8, §9
as §10, with “used. […]” for “used.”

honeybees [3] = experiment: Test for Confirmation of Honeybee Repelling Effect 1, 2, 3 (feeding station with 40% sugar water); format: in vivo; conditions: for Corrected repelling rate (%) Honeybees: Test 3, 5 mL; for Corrected repelling rate R (%): honeybees
stink bugs [4] = experiment: Test for Confirmation of Stink Bug Behaviors against Active Ingredients 1, 2, 3 (treated filter paper); format: in vivo, southern green stink bugs
Description: The test samples in “Test for Confirmation of Honeybee Repelling Effect 1” above were used.
A liquid calcium carbonate/ethanol dispersion was applied on the entire interior wall of a KP cup (100 mm in diameter×90 mm in height) and air-dried, after which a filter paper (90 mm in diameter) was fixed on the bottom face of the KP cup using double-sided tape. A different filter paper (90 mm in diameter) was cut along its diameter and the resulting semicircle-shaped paper was uniformly treated with 400 μL of each test sample or sample for correction, and then placed over the filter paper fixed on the aforementioned bottom face of the KP cup by allowing the circular parts to overlap, for use as a testing device.
The “repelling rate Y” and “corrected repelling rate Z” were calculated from the above “time A (sec)” and “time B (sec)” using the calculation formula below. For the “repelling rate of sample for correction” used to calculate the “corrected repelling rate Z,” the repelling rate of each of the samples for correction above (ethanol alone or water alone being a solvent for the active ingredient) was used.
Corrected repelling rate Z (%)={Repelling rate of test sample−Repelling rate of sample for correction}/{100−Repelling rate of sample for correction}×100
For the test samples, the test samples in “Test for Confirmation of Honeybee Repelling Effect 2” above were used.

[5] = 0 h (start of testing), 0.01% w/v pesticide, with or without 0.1% w/v repelling component, 5 mL on feeding station
[6] = 3 hours after the start of test
[7] = 0.1% by weight per volume solution
[8] = Test 3, 0.1% by weight per volume solution, 400 μL
[9] = Test 1, 2% by weight per volume solution
[10] = Test 1, 2% by weight per volume solution, 5 mL sprayed (active ingredient 0.1 g)
[11] = Test 1, 2% by weight per volume solution, 400 μL on filter paper, 30 minutes
[12] = Test 2, 0.1% by weight per volume solution, 5 mL (active ingredient 5 mg)
[13] = Test 2, 0.1% by weight per volume solution, 400 μL

SMILES: N#Cc1nn(-c2c(Cl)cc(C(F)(F)F)cc2Cl)c(N)c1[S+]([O-])C(F)(F)F (stereo not drawn) [fipronil]
- Number of dead honeybees (honeybees [1]; [5]): 0
- Number of dead honeybees (honeybees [1]; 2 h): 14
- Number of dead honeybees (honeybees [1]; 3 h): 32
- honeybees of the tested population that had died (honeybees [1]; [6]): approx. 60%

SMILES: CN/C(=N\[N+](=O)[O-])NCc1cnc(Cl)s1 [clothianidin]
- Number of dead honeybees (honeybees [1]; [5]): 0
- Number of dead honeybees (honeybees [1]; 1 h): 11
- Number of dead honeybees (honeybees [1]; 2 h): 18
- Number of dead honeybees (honeybees [1]; 3 h): 39
- honeybees of the tested population that had died (honeybees [1]; [6]): approx. 60%

SMILES: CN/C(=N/CC1CCOC1)N[N+](=O)[O-] (stereo not drawn) [dinotefuran]
- Number of dead honeybees (honeybees [1]; [5]): 0
- Number of dead honeybees (honeybees [1]; 3 h): 1
- Number of dead honeybees (honeybees [1]; 18 h): 3
- Number of dead honeybees (honeybees [1]; 20 h): 21
- honeybees of the tested population that had died (honeybees [1]; 20 hours after the start of testing): approx. 40%
- Number of dead stink bugs (stink bugs [2]; 0 h (start of testing)): 0
- Number of dead stink bugs (stink bugs [2]; 3 h): 2
- Number of dead stink bugs (stink bugs [2]; 18 h): 5
- Number of dead stink bugs (stink bugs [2]; 20 h): 6

SMILES: CCCCCCCCCCCC(=O)OCCCC [y-37, butyl laurate]
- Corrected repelling rate (%) Honeybees (honeybees [3]; [7]): 33.0%
- Corrected repelling rate (%) Stinkbugs (stink bugs [4]; [8]): ∘

SMILES: CCCCOC(C)=O [y-46, butyl acetate]
- Corrected repelling rate (%) Honeybees (honeybees [3]; [7]): 40.2%
- Corrected repelling rate (%) Stinkbugs (stink bugs [4]; 0.5 h, 0.1 % strength): x (“x” for rates “not <0”)

SMILES: CC1=C(O)C(=O)OC1C (stereo not drawn) [c-2, sotolon]
- repelling effect / repelled behaviors of honeybees (in words) (honeybees [3]; [9]): excellent repelling effect
- Corrected repelling rate R (%) (honeybees [3]; [10]): 79.7%
- Corrected repelling rate (%) Stinkbugs (stink bugs [4]; [11]): <0%

SMILES: CC(=O)/C=C/C1=C(C)CCCC1(C)C [x-15, ß-ionone]
- Corrected repelling rate R (%) (honeybees [3]; [12]): 83.7%
- Corrected repelling rate (%) Stinkbugs (stink bugs [4]; [13]): <0%

SMILES: C=CCCCCCCCCC(=O)OCC [y-39, ethyl 10-undecenoate]
- Corrected repelling rate (%) Honeybees (honeybees [3]; [7]): 75.8%
- repelling of stink bugs and other injurious insects to be exterminated (in words) (stink bugs [4]): not repelling stink bugs
- Corrected repelling rate (%) Stinkbugs (stink bugs [4]; [8]): ∘

SMILES: c1ccc(CCCc2ccccn2)cc1 [x-13, 2-(3-phenylpropyl)pyridine]
- Corrected repelling rate R (%) (honeybees [3]; [12]): 86.4%
- Corrected repelling rate (%) Stinkbugs (stink bugs [4]; [13]): <0%

SMILES: CC(C)CCOC=O [x-11, isoamyl formate]
- Corrected repelling rate R (%) (honeybees [3]; [12]): 15.1%
- Corrected repelling rate (%) Stinkbugs (stink bugs [4]; [13]): <0%

SMILES: C=C(C)C1CC=C(C=O)CC1 (stereo not drawn) [y-8, perillaldehyde]
- Corrected repelling rate (%) Honeybees (honeybees [3]; [7]): 94.7%
- Corrected repelling rate (%) Stinkbugs (stink bugs [4]; 0.5 h, 0.1 % strength): x (“x” for rates “not <0”)

SMILES: Oc1cccc2nccnc12 [y-85, 5-hydroxyquinoxaline]
- Corrected repelling rate (%) Honeybees (honeybees [3]; [7]): 71.5%
- repelling of stink bugs and other injurious insects to be exterminated (in words) (stink bugs [4]): not repelling stink bugs
- Corrected repelling rate (%) Stinkbugs (stink bugs [4]; [8]): ∘

SMILES: CCCCCCCC [a-1, octane]
- repelling effect / repelled behaviors of honeybees (in words) (honeybees [3]; [9]): excellent repelling effect
- Corrected repelling rate R (%) (honeybees [3]; [10]): 57.0%
- Corrected repelling rate (%) Stinkbugs (stink bugs [4]; [11]): <0%
